Data from article PMC11274883, “Anticancer Effect of Pt^[sequence], Pt^II5MESS, Pt^II56MESS and Their Platinum(IV)-Dihydroxy Derivatives against Triple-Negative Breast Cancer and Cisplatin-Resistant Colorectal Cancer” (Cancers, 2024).

Experiments:
Type in all cases: cell-based
HT29 cells [1] = assay: DCFDA cellular ROS detection assay; conditions: complexes at IC50, TBHP 20 µM
Method: (§1) DCFDA/H2DCFDA-cellular ROS Assay Kit (Abcam, Cambridge, MA, USA) was used to investigate the production of ROS in treated cells, as previously described. MDA−MB−231 or HT29 cells were seeded at a total concentration of 2500 cells/well in 96-well plates and incubated overnight. DMEM was then removed, and cells washed with 1× kit buffer, and stained with 25 µM 2′,7′-dichlorofluorescein diacetate (DCFH-DA) for 45 min. […] After that, the plates were scanned using the Glo-Max®-Multimode microplate reader (Promega Corporation, Alexandra, VIC, Australia) at an excitation/emission of 485/535 nm to detect fluorescence (relative fluorescence units, or RFU) at various time points. A positive control was generated using 20 µM tert-butyl hydroperoxide (TBHP), and the same procedure was applied with DCFDA. Three independent experiments in triplicates were implemented.

MDA−MB−231 cells [2] = assay: DCFDA cellular ROS detection assay; conditions: complexes at IC50, TBHP 20 µM
Method: as §1

HT29 cells [3] = assay: Western blot protein expression; conditions: HT29, IC50, 72 h
Method: (§2) Protein extraction was then performed on ice. Media were collected in Eppendorf tubes, and centrifuged at 500× g for 5 min at 4 °C. Meanwhile, 200 µL of lysis RIPA buffer, made up of 150 mM NaCl, 50 mM Tris-HCl, pH 8.0, 0.1% Triton X-100, 0.5% sodium deoxycholate, 0.1% SDS and 1 mM sodium orthovanadate, was added to each well, the cells were scrapped into the buffer, and added to the media-derived pellets. The tubes were placed on the shaker for 10 min at 4 °C. Then, cell extracts were centrifuged at 12,000× g for 15 min at 4 °C, and the supernatants (containing the proteins) were collected. The Bio-Rad-DC protein assay (Bio-Rad, Hercules, CA, USA) was used to assess protein content. Laemmli protein sample buffer (4×) with β-mercaptoethanol (9%) was used to prepare a final protein concentration of 20 µg. The samples were then heated at 100 °C for 5 min. A final volume of 30 µL of each sample was added per well and subjected to SDS-PAGE using Bolt 4–12% Bis-Tris gel (Thermo Fisher, Eugene, OR, USA) at 80 V for 30 min and then 120 V for 60 min with PageRuler™ Prestained Protein or SeeBlue Prestained Protein Ladder (Thermo Fisher, Eugene, OR, USA). Proteins were subsequently transferred to a 0.2 µm PVDF membrane (Amersham, Cytiya) using a semi-dry blot transfer. The membrane was then blocked in 5% BSA in TBST, for 1 h and probed overnight at 4 °C with primary antibodies against several cell proliferation, apoptotic, anti-apoptotic, microtubule and autophagic protein markers listed in Table S7 as per the manufacturer’s protocol. The primary antibody was then removed, washed three times for 10 min with TBST and then membranes were treated with either mouse or rabbit HRP-coupled secondary antibodies (1/3000) for 1 h and 30 min. Protein band detection was then performed using the chemiluminescence ECL kit (Thermo Fisher, Eugene, OR, USA). Blot images were obtained using the Odyssey® FC imaging system (LI-COR Biosciences, Lincoln, NE, USA) and band intensities were quantified relatively to glyceraldehyde-3-phosphate dehydrogenase (GAPDH) and then normalised each replicate gel to its corresponding no treatment control using the ImageJ v1.53t software (National Institutes of Health, Bethesda, MD, USA). Each marker results from the same experiment or parallel experiment where the gels were processed in parallel. Three independent experiments per marker were conducted.

MDA−MB−231 cells [4] = assay: Western blot protein expression; conditions: MDA−MB−231, IC50, 72 h
Method: as §2

HT29 cells [5] = assay: TMRE mitochondrial membrane potential assay; conditions: complexes at IC50, FCCP 20 µM
Method: (§3) Cells were then treated with an IC50 drug concentration for each complex. At 24, 48 or 72 h, DMEM was removed, and cells were washed with PBS. Then, cells were incubated with 1 µM tetramethylrhodamine, ethyl ester (TMRE) stain for 30 min. TMRE was then removed, and cells were washed twice with PBS (0.2% BSA), after which phenol red-free media was added. […] The cells were then stained with TMRE, as described above, and the resulting solution was scanned for fluorescence. Three independent experiments in triplicates were implemented.

MDA−MB−231 cells [6] = assay: TMRE mitochondrial membrane potential assay; conditions: complexes at IC50, FCCP 20 µM
Method: as §3

[7] = representative blot Figure S30G
[8] = representative blot Figure S30H

Cc1cc2cccnc2c2ncccc12.N[C@H]1CCCC[C@@H]1N.O=[N+]([O-])[O-].O=[N+]([O-])[O-].[OH][Pt+2][OH] [Pt^IV5MESS(OH)2, [Pt(5-methyl-1,10-phenanthroline)(1S,2S-diaminocyclohexane)(dihydroxy)](NO3)2]
ROS production (HT29 cells [1]; HT29, 24 h): 234.55 RFU | ROS production (HT29 cells [1]; HT29, 48 h): 278.33 RFU | ROS production (HT29 cells [1]; HT29, 72 h): 296.67 RFU | ROS production (MDA−MB−231 cells [2]; MDA−MB−231, 24 h): 245.26 RFU | ROS production (MDA−MB−231 cells [2]; MDA−MB−231, 48 h): 264.00 RFU | ROS production (MDA−MB−231 cells [2]; MDA−MB−231, 72 h): 314.78 RFU | β-actin/GAPDH normalized to control (1) (HT29 cells [3]; representative blot Figure S28A): 0.2948 | β-tubulin/GAPDH normalized to control (1) (HT29 cells [3]; representative blot Figure S28B): 0.1611 | α-tubulin/GAPDH normalized to control (1) (HT29 cells [3]; representative blot Figure S28C): 0.1518 | p-AKT/AKT/GAPDH normalized to control (1) (HT29 cells [3]; representative blot Figure S29A): 0.4249 | p-ERK/ERK/GAPDH normalized to control (1) (HT29 cells [3]; representative blot Figure S29B): 1.297 | p53/GAPDH normalized to control (1) (HT29 cells [3]; representative blot Figure S29C): 3.349 | p21/GAPDH normalized to control (1) (HT29 cells [3]; representative blot Figure S29D): 2.658 | Bax/GAPDH normalized to control (1) (HT29 cells [3]; representative blot Figure S30A): 3.075 | Bcl2/GAPDH normalized to control (1) (HT29 cells [3]; representative blot Figure S30B): 0.4381 | Cyt C/GAPDH normalized to control (1) (HT29 cells [3]; representative blot Figure S30C): 6.184 | Procaspase 8/GAPDH normalized to control (1) (HT29 cells [3]; representative blot Figure S30D): 0.4372 | Cleaved BID/GAPDH normalized to control (1) (HT29 cells [3]; representative blot Figure S30E): 2.712 | Procaspase 9/GAPDH normalized to control (1) (HT29 cells [3]; representative blot Figure S30F): 0.2026 | Cleaved caspase 3/GAPDH normalized to control (1) (HT29 cells [3]; [7]): 7.887 | Procaspase 3/GAPDH normalized to control (1) (HT29 cells [3]; [7]): 1.238 | Cleaved PARP-1/GAPDH normalized to control (1) (HT29 cells [3]; [8]): 5.761 | PARP-1/GAPDH normalized to control (1) (HT29 cells [3]; [8]): 0.6207 | Beclin1/GAPDH normalized to control (1) (HT29 cells [3]; representative blot Figure S31A): 6.943 | ATG5/GAPDH normalized to control (1) (HT29 cells [3]; representative blot Figure S31B): 0.2364 | ATG16L1/GAPDH normalized to control (1) (HT29 cells [3]; representative blot Figure S31C): 2.006 | ATG9A/GAPDH normalized to control (1) (HT29 cells [3]; representative blot Figure S31D): 2.334 | ATG4B/GAPDH normalized to control (1) (HT29 cells [3]; representative blot Figure S31E): 0.5922 | LC3B/GAPDH normalized to control (1) (HT29 cells [3]; representative blot Figure S31F): 1.713 | β-actin/GAPDH normalized to control (1) (MDA−MB−231 cells [4]; representative blot Figure S24A): 0.8788 | β-tubulin/GAPDH normalized to control (1) (MDA−MB−231 cells [4]; representative blot Figure S24B): 0.3985 | α-tubulin/GAPDH normalized to control (1) (MDA−MB−231 cells [4]; representative blot Figure S24C): 1.177 | p-AKT/AKT/GAPDH normalized to control (1) (MDA−MB−231 cells [4]; representative blot Figure S25A): 0.9345 | p-ERK/ERK/GAPDH normalized to control (1) (MDA−MB−231 cells [4]; representative blot Figure S25B): 0.144 | p53/GAPDH normalized to control (1) (MDA−MB−231 cells [4]; representative blot Figure S25C): 1.183 | p21/GAPDH normalized to control (1) (MDA−MB−231 cells [4]; representative blot Figure S25D): 1.042 | Bax/GAPDH normalized to control (1) (MDA−MB−231 cells [4]; representative blot Figure S26A): 1.846 | Bcl2/GAPDH normalized to control (1) (MDA−MB−231 cells [4]; representative blot Figure S26B): 0.7914 | Cytochrome C/GAPDH normalized to control (1) (MDA−MB−231 cells [4]; representative blot Figure S26C): 2.795 | Procaspase 8/GAPDH normalized to control (1) (MDA−MB−231 cells [4]; representative blot Figure S26D): 0.3546 | Cleaved BID/GAPDH normalized to control (1) (MDA−MB−231 cells [4]; representative blot Figure S26E): 5.948 | Procaspase 9/GAPDH normalized to control (1) (MDA−MB−231 cells [4]; representative blot Figure S26F): 0.3022 | Procaspase 3/GAPDH normalized to control (1) (MDA−MB−231 cells [4]; representative blot Figure S26G): 0.7167 | PARP-1/GAPDH normalized to control (1) (MDA−MB−231 cells [4]; representative blot Figure S26H): 0.5187 | Beclin1/GAPDH normalized to control (1) (MDA−MB−231 cells [4]; representative blot Figure S27A): 0.9374 | ATG5/GAPDH normalized to control (1) (MDA−MB−231 cells [4]; representative blot Figure S27B): 1.065 | ATG16L1/GAPDH normalized to control (1) (MDA−MB−231 cells [4]; representative blot Figure S27C): 1.203 | ATG9A/GAPDH normalized to control (1) (MDA−MB−231 cells [4]; representative blot Figure S27D): 0.3984 | ATG4B/GAPDH normalized to control (1) (MDA−MB−231 cells [4]; representative blot Figure S27E): 2.797 | LC3B/GAPDH normalized to control (1) (MDA−MB−231 cells [4]; representative blot Figure S27F): 0.6059 | MtMp (mitochondrial membrane potential) (HT29 cells [5]; HT29, 24 h): 304.45 RFU | MtMp (mitochondrial membrane potential) (HT29 cells [5]; HT29, 48 h): 224.23 RFU | MtMp (mitochondrial membrane potential) (HT29 cells [5]; HT29, 72 h): 198.24 RFU | MtMp (mitochondrial membrane potential) (MDA−MB−231 cells [6]; MDA−MB−231, 24 h): 250.80 RFU | MtMp (mitochondrial membrane potential) (MDA−MB−231 cells [6]; MDA−MB−231, 48 h): 201.07 RFU | MtMp (mitochondrial membrane potential) (MDA−MB−231 cells [6]; MDA−MB−231, 72 h): 155.85 RFU
